The values that follow are results of earlier work, collected in patent US20210228483A1, “LOW GLYCEMIC GUMMY COMPOSITION AND METHODS OF MAKING AND USING THEREOF” (Seattle Gummy Company, priority 2018, published 2021).

For data set [1] the following is noted: in vivo.
Another data set has as its system blood glucose levels. As to conditions: as shown in FIG. 3 (trehalose) and FIG. 4 (isomaltulose).

On to `OC[C@H]1O[C@H](OC[C@H]2OC(O)(CO)[C@@H](O)[C@@H]2O)[C@H](O)[C@@H](O)[C@@H]1O` (stereo partly shown) [isomaltulose], for which, in data set [1], the “GI value (glycemic index)” value was “about 30”. In addition, the “spike in glucose levels” value in the data set on blood glucose levels is reported as “does not cause a spike in glucose levels”.

On to `OC[C@H]1O[C@H](O[C@H]2O[C@H](CO)[C@@H](O)[C@H](O)[C@H]2O)[C@H](O)[C@@H](O)[C@@H]1O` [trehalose], for which the “spike in glucose levels” value with blood glucose levels was “does not cause a spike in glucose levels”. With `OC[C@H]1O[C@@](CO)(O[C@H]2O[C@H](CO)[C@@H](O)[C@H](O)[C@H]2O)[C@@H](O)[C@@H]1O` [sucrose, reference compound], the “GI value (glycemic index)” value in data set [1] is on record as 63.
